# Key:
# TRα = molecular target: T1, TRα (Homo sapiens, UniProt P10827); assay: In vitro binding activity, LanthaScreen TR-FRET Thyroid Receptor alfa Coactivator Assay; settings: TRα-LBD
# T1 construct: Then 5 μL of 4×TRα-LBD or TRP-LBD; purchased Invitrogen PV4687
# Experimental: (§1) 2. Detection of TRα or TRβ Binding Activity In Vitro of the Compound of the Present Invention
# (§2) • LanthaScreen TR-FRET Thyroid Receptor beta Coactivator Assay kit was purchased from Invitrogen, Cat. No. PV4686; • LanthaScreen TR-FRET Thyroid Receptor alfa Coactivator Assay kit was purchased from Invitrogen, Cat. No. PV4687. Test Method:
# (§3) This method was tested using LanthaScreen TR-FRET Thyroid Receptor beta/alfa Coactivator Assay kit. The test compound was dissolved in DMSO and diluted three-fold to obtain a total of 10 concentrations, then the compounds were diluted into solutions containing 2% DMSO with TR-FRET Coregulator Buffer C in the kit. 10 μL of the compounds containing 2% DMSO were taken to a 384-well plate. Then 5 μL of 4×TRα-LBD or TRP-LBD and 5 μL of a mixture containing 0.4 μM fluorescein-SRC2-2 and 8 nM Tb anti-GST antibody were added to each well. After mixing well, the compounds were incubated at room temperature in the dark for 1 h. After 1 h, the fluorescence value (RFU) was read at 520 nm and 495 nm using PHERAstar FSX microplate reader from BMG LABTECH. The emission signal at 520 nm was divided by the emission signal at 495 nm to calculate the TR-FRET ratio.
# TRβ = molecular target: T2, TRβ (Homo sapiens, UniProt P10828); assay: In vitro binding activity, LanthaScreen TR-FRET Thyroid Receptor beta Coactivator Assay; settings: TRβ-LBD
# T2 construct: Then 5 μL of 4×TRα-LBD or TRP-LBD; purchased Invitrogen PV4686
# T2 sequence (P10828 217-461 limits assumed): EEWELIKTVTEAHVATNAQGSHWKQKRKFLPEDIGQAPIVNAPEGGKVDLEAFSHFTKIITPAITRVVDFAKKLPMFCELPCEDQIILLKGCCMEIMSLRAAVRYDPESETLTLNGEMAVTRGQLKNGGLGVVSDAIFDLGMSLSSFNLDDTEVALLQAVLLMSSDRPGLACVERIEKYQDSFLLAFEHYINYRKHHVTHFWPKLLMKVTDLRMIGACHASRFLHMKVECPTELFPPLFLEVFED
# Experimental: as §1, §2, §3
# T1 sequence (P10827 163-410 isoform P10827-2 limits assumed, other chains not shown): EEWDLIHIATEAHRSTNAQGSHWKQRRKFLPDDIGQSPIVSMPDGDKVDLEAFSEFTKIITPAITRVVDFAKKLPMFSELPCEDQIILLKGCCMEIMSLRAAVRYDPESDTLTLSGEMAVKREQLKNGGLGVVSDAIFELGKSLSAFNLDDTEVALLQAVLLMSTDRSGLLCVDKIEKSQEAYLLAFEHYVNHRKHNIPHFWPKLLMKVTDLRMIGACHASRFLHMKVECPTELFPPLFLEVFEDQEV
SMILES,EC50 (TRα),EC50 (TRβ)
"N#Cc1nn(-c2cc(Cl)c(Oc3ccc(=O)n(Cc4ccccc4)c3)c(Cl)c2)c(=O)[nH]c1=O [Example 1, 2-[4-[(1-benzyl-6-oxo-1,6-dihydropyridin-3-yl)oxy]-3,5-dichlorophenyl]-3,5-dioxo-1,2,4-triazine-6-carbonitrile]",3030 nM,60 nM
"N#Cc1nn(-c2cc(Cl)c(Oc3ccc(=O)n(Cc4ccccc4)n3)c(Cl)c2)c(=O)[nH]c1=O [Example 2, 2-[4-(1-benzyl-6-oxo-1,6-dihydropyridazin-3-yl)oxy-3,5-dichlorophenyl]-3,5-dioxo-1,2,4-triazine-6-carbonitrile]",> 100000 nM,> 10000 nM
"CC(C)n1cc(Oc2c(Cl)cc(-n3nc(C#N)c(=O)[nH]c3=O)cc2Cl)ccc1=O [Example 4, 2-[3,5-dichloro-4-[(1-isopropyl-6-oxo-1,6-dihydropyridin-3-yl)oxy]phenyl]-3,5-dioxo-1,2,4-triazine-6-carbonitrile]",> 100000 nM,500 nM
"N#Cc1nn(-c2cc(Cl)c(Oc3ccc(=O)n(-c4ccc(F)cc4)n3)c(Cl)c2)c(=O)[nH]c1=O [Example 8, 2-[3,5-dichloro-4-[1-(4-fluorophenyl)-6-oxo-1,6-dihydropyridazin-3-yl]oxy-phenyl]-3,5-dioxo-1,2,4-triazine-6-carbonitrile]",> 100000 nM,> 10000 nM
"CC(c1ccccc1)n1nc(Oc2c(Cl)cc(-n3nc(C#N)c(=O)[nH]c3=O)cc2Cl)ccc1=O (centres unmarked) [Example 9, 2-[3,5-dichloro-4-[[6-oxo-1-(1-phenethyl)-1,6-dihydropyridazin-3-yl]oxyl]phenyl]-3,5-dioxo-1,2,4-triazine-6-carbonitrile]",> 100000 nM,> 10000 nM
"N#Cc1nn(-c2cc(Cl)c(Oc3cnc(=O)n(Cc4ccccc4)c3)c(Cl)c2)c(=O)[nH]c1=O [Example 10, 2-[4-(1-benzyl-2-oxo-1,2-dihydropyrimidin-5-yl)oxy-3,5-dichlorophenyl]-3,5-dioxo-1,2,4-triazine-6-carbonitrile]",> 100000 nM,> 10000 nM
"N#Cc1nn(-c2cc(Cl)c(Oc3ccc(=O)n(Cc4ccc(F)c(F)c4)c3)c(Cl)c2)c(=O)[nH]c1=O [Example 11, 2-[3,5-dichloro-4-[[1-(3,4-difluorobenzyl)-6-oxo-1,6-dihydropyridin-3-yl]oxy]phenyl]-3,5-dioxo-1,2,4-triazine-6-carbonitrile]",670 nM,22 nM
"N#Cc1nn(-c2cc(Cl)c(Oc3ccc(=O)n(Cc4ccc(OC(F)(F)F)cc4)c3)c(Cl)c2)c(=O)[nH]c1=O [Example 12, 2-[3,5-dichloro-4[[6-oxo-1-[4-(trifluoromethoxy)benzyl]-1,6-dihydropyridin-3-yl]oxy]phenyl]-3,5-dioxo-1,2,4-triazine-6-carbonitrile]",> 100000 nM,1340 nM
"N#Cc1nn(-c2cc(Cl)c(Oc3ccc(=O)n(Cc4ccc(F)cc4)c3)c(Cl)c2)c(=O)[nH]c1=O [Example 13, 2-[3,5-dichloro-4-[[1-(4-fluorobenzyl)-6-oxo-1,6-dihydropyridin-3-yl]oxy]phenyl]-3,5-dioxo-1,2,4-triazine-6-carbonitrile]",600 nM,20 nM
"N#Cc1nn(-c2cc(Cl)c(Oc3ccc(=O)n(Cc4cccc(C(F)(F)F)c4)c3)c(Cl)c2)c(=O)[nH]c1=O [Example 14, 2-[3,5-dichloro-4-[[6-oxo-1-[3-(trifluoromethyl)benzyl]-1,6-dihydropyridin-3-yl]oxy]phenyl]-3,5-dioxo-1,2,4-triazine-6-carbonitrile]",5740 nM,350 nM
"CCOC(=O)Cn1cc(Oc2c(Cl)cc(-n3nc(C#N)c(=O)[nH]c3=O)cc2Cl)ccc1=O [Example 17, Ethyl 2-[5-[2,6-dichloro-4-(6-cyano-3,5-dioxo-1,2,4-triazin-2-yl)phenoxy]-2-oxy-pyridine-1(2H)-yl] acetate]",15400 nM,350 nM
"COCCn1cc(Oc2c(Cl)cc(-n3nc(C#N)c(=O)[nH]c3=O)cc2Cl)ccc1=O [Example 18, 2-[3,5-dichloro-4-[[1-(2-methoxyethyl)-6-oxo-1,6-dihydropyridin-3-yl]oxy]phenyl]-3,5-dioxo-1,2,4-triazine-6-carbonitrile]",1350 nM,86 nM
"CCOC(=O)Cn1nc(Oc2c(Cl)cc(-n3nc(C#N)c(=O)[nH]c3=O)cc2Cl)ccc1=O [Example 19, Ethyl 2-[3-[2,6-dichloro-4-(6-cyano-3,5-dioxo-1,2,4-triazin-2-yl)phenoxy]-6-oxy-pyridazine-1(6H)-yl] acetate]",> 100000 nM,> 10000 nM
"N#Cc1nn(-c2cc(Cl)c(Oc3cnc(=O)n(Cc4ccc(F)cc4)c3)c(Cl)c2)c(=O)[nH]c1=O [Example 20, 2-[3,5-dichloro-4-[1-(4-fluorobenzyl)-2-oxo-1,2-dihydropyrimidin-5-yl]oxy-phenyl]-3,5-dioxo-1,2,4-triazine-6-carbonitrile]",> 100000 nM,7370 nM
"COc1cccc(Cn2cc(Oc3c(Cl)cc(-n4nc(C#N)c(=O)[nH]c4=O)cc3Cl)ccc2=O)c1 [Example 22, 2-[3,5-dichloro-4-[[1-[(3-methoxyphenyl)methyl]-6-oxopyridin-3-yl]oxy]phenyl]-3,5-dioxo-1,2,4-triazine-6-carbonitrile]",> 100000 nM,690 nM
"Cc1ccc(Cn2cc(Oc3c(Cl)cc(-n4nc(C#N)c(=O)[nH]c4=O)cc3Cl)ccc2=O)cc1 [Example 23, 2-[3,5-dichloro-4-[[1-(4-methylbenzyl)-6-oxo-1,6-dihydropyridin-3-yl]oxy]phenyl]-3,5-dioxo-1,2,4-triazine-6-carbonitrile]",3000 nM,60 nM
"CCOC(=O)C(C)n1cc(Oc2c(Cl)cc(-n3nc(C#N)c(=O)[nH]c3=O)cc2Cl)ccc1=O (centres unmarked) [Example 24, Ethyl 2-(5-(2,6-dichloro-4-(6-cyano-3,5-dioxo-1,2,4-triazin-2-yl)phenoxy)-2-oxypyridine-1(2H)-yl)propionate]",570 nM,20 nM
"N#Cc1nn(-c2cc(Cl)c(Oc3ccc(=O)n(CC4CCOCC4)c3)c(Cl)c2)c(=O)[nH]c1=O [Example 25, 2-[3,5-dichloro-4-[[6-oxo-1-((tetrahydropyran-4-yl)methyl)-1,6-dihydropyridin-3-yl]oxy]phenyl]-3,5-dioxo-1,2,4-triazine-6-carbonitrile]",6660 nM,140 nM
"CCOC(=O)c1nn(-c2cc(Cl)c(Oc3ccc(=O)n(Cc4ccccc4)c3)c(Cl)c2)c(=O)[nH]c1=O [Example 27, Ethyl 2-(4-((1-benzyl-6-oxo-1,6-dihydropyridin-3-yl)oxy)-3,5-dichlorophenyl)-3,5-dioxo-1,2,4-triazine-6-carboxylate]",> 100000 nM,1490 nM
"NC(=O)c1nn(-c2cc(Cl)c(Oc3ccc(=O)n(Cc4ccccc4)c3)c(Cl)c2)c(=O)[nH]c1=O [Example 30, 2-(4-((1-benzyl-6-oxo-1,6-dihydropyridin-3-yl)oxy)-3,5-dichlorophenyl)-3,5-dioxo-2,3,4,5-tetrahydro-1,2,4-triazine-6-carboxamide]",> 100000 nM,3760 nM
"COc1ccc(Cn2cc(Oc3c(Cl)cc(-n4nc(C#N)c(=O)[nH]c4=O)cc3Cl)ccc2=O)cc1 [Example 31, 2-(3,5-dichloro-4-((1-(4-methoxybenzyl)-6-oxo-1,6-dihydropyridin-3-yl)oxy)phenyl)-3,5-dioxo-2,3,4,5-tetrahydro-1,2,4-triazine-6-carbonitrile]",4400 nM,94 nM
"N#Cc1nn(-c2cc(Cl)c(Oc3ccc(=O)n(CCO)c3)c(Cl)c2)c(=O)[nH]c1=O [Example 32, 2-(3,5-dichloro-4-((1-(2-hydroxyethyl)-6-oxo-1,6-dihydropyridin-3-yl)oxy)phenyl)-3,5-dioxo-2,3,4,5-tetrahydro-1,2,4-triazine-6-carbonitrile]",22700 nM,1520 nM
"O=c1[nH]c(=O)n(-c2cc(Cl)c(Oc3ccc(=O)n(Cc4ccccc4)c3)c(Cl)c2)nc1CO [Example 33, 2-(4-((1-benzyl-6-oxo-1,6-dihydropyridin-3-yl)oxy)-3,5-dichlorophenyl)-6-(hydroxymethyl)-1,2,4-triazine-3,5(2H,4H)-dione]",3230 nM,231 nM
"Cc1cc(-n2nc(C#N)c(=O)[nH]c2=O)cc(C)c1Oc1ccc(=O)n(Cc2ccccc2)c1 [Example 34, 2-(4-((1-benzyl-6-oxo-1,6-dihydropyridin-3-yl)oxy)-3,5-dimethylphenyl)-3,5-dioxo-2,3,4,5-tetrahydro-1,2,4-triazine-6-carbonitrile]",7310 nM,367 nM
"N#Cc1nn(-c2cc(Br)c(Oc3ccc(=O)n(Cc4ccccc4)c3)c(Br)c2)c(=O)[nH]c1=O [Example 35, 2-(4-((1-benzyl-6-oxo-1,6-dihydropyridin-3-yl)oxy)-3,5-dibromophenyl)-3,5-dioxo-2,3,4,5-tetrahydro-1,2,4-triazine-6-carbonitrile]",473 nM,17 nM

# Source: patent US12617769B2, “Chemical compound as thyroid hormone beta receptor agonist and use thereof” (SUNSHINE LAKE PHARMA CO., LTD., priority 2019, dated 2026)
